Measured values reported in US20140113934A1, “HETEROCYCLIC COMPOUNDS FOR TREATING HELMINTH INFECTIONS” (E I DU PONT DE NEMOURS AND COMPANY, priority 2011, published 2014).

Each compound was assayed on Haemonchus contortus (assay: Test A: control of barber pole worm, eggs in culture media, mortality after 120 hours (L3 stage)). Conditions: not given.
Type: cell-based
Method: For evaluating control of the barber pole worm (Haemonchus contortus), a test compound was solubilized in culture media (Earle's Balanced Salt Solution) containing Haemonchus contortus eggs to obtain a final test compound concentration of 2.0 ppm. The test unit was evaluated for mortality 120 hours later after which the eggs had hatched and had advanced to the L3 stage.

| Compound | mortality at 2 ppm |
| --- | --- |
| N#Cc1c(Cl)cccc1Oc1ccc(S(=O)(=O)NCc2ccnc3ccccc23)cc1 [Compound 2, 4-(3-chloro-2-cyanophenoxy)-N-(4-quinolinylmethyl)benzenesulfonamide] | 100% |
| O=S(=O)(NCc1ccnc2ccccc12)c1cccc(Cc2ccccc2)c1 [Compound 64] | 100% |
| O=S(=O)(NCc1ccnc2ccccc12)c1ccc(S(=O)(=O)c2ccccc2)s1 [Compound 36] | 100% |
| O=S(=O)(NCc1ccnc2ccccc12)c1cccc(OCc2ccccc2)c1 [Compound 40] | 100% |
| O=S(=O)(NCc1ccnc2ccccc12)c1cccc(COc2ccc(Cl)cc2Cl)c1 [Compound 44] | 100% |
| O=S(=O)(NCc1ccnc2ccccc12)c1cccc(COc2ccccc2)c1 [Compound 46] | 100% |
| O=S(=O)(NCc1ccnc2ccccc12)c1ccc(C#Cc2ccccc2)s1 [Compound 74] | 100% |
| O=S(=O)(NCc1ccnc2ccccc12)c1ccc(Cc2ccc(F)cc2F)s1 [Compound 99] | 100% |
| N#Cc1ccccc1Oc1ccc(S(=O)(=O)NCc2ccnc3ccccc23)cn1 [Compound 41] | 100% |
| COC(=O)c1ccccc1Oc1ccc(S(=O)(=O)NCc2ccnc3ccccc23)cc1 [Compound 16, methyl 2-[4-[[(4-quinolinylmethyl)amino]sulfonyl]phenoxy]benzoate] | 100% |
| O=S(=O)(NCc1ccnc2ccccc12)c1ccc(Cc2ccccc2)s1 [Compound 80] | 100% |
| O=S(=O)(NCc1ccnc2ccccc12)c1ccc(C#Cc2ccc(Cl)cc2Cl)s1 [Compound 73] | 100% |
| O=S(=O)(NCc1ccnc2ccccc12)c1ccc(COc2ccccc2)cc1Cl [Compound 37] | 100% |
| O=S(=O)(NCc1ccnc2ccccc12)c1cccc(Cc2ccc(F)cc2)c1 [Compound 92] | 100% |
| O=S(=O)(NCc1ccnc2ccccc12)c1ccc(Cc2ccccc2)cc1 [Compound 5, 4-(phenylmethyl)-N-(4-quinolinylmethyl)benzenesulfonamide] | 100% |
| O=S(=O)(NCc1ccnc2ccccc12)c1ccc(C#Cc2ccccc2Cl)s1 [Compound 75] | 100% |

Each compound was assayed on Haemonchus contortus (assay: Test B: Haemonchus contortus burdens in orally infected mice after gavage of test compound). Conditions: mice infected orally with 600 L3 Haemonchus contortus larvae; gavage 10.0 mg/kg on day 0; burdens on day 5 relative to vehicle-dosed controls.
Type: in vivo
Method: For evaluating control of the barber pole worm (Haemonchus contortus), mice were each infected orally with 600 L3 Hlaemonchus contortus larvae on Day −3. On day 0, the infected mice were gavaged with a test compound (n=1) in a propylene glycol/glycerol formal solution at the rate of 10.0 mg/kg body weight. On day 5, the mice were euthanized and evaluated for Haemonchus contortus burdens relative to the vehicle-dosed controls. The range of means for the number of Haemonchus contortus in the various tests in which these compounds were studied was 55-184.

| Compound | % Efficacy |
| --- | --- |
| O=S(=O)(NCc1ccnc2ccccc12)c1ccc(Cc2ccc(F)cc2)cc1 [Compound 59] | 86% |
| N#Cc1c(Cl)cccc1Oc1ccc(S(=O)(=O)NCc2ccnc3ccccc23)cc1 [Compound 2, 4-(3-chloro-2-cyanophenoxy)-N-(4-quinolinylmethyl)benzenesulfonamide] | 76% |
| 4-(2-chloro-4-cyanophenoxy)-N-(quinolinylmethyl)benzenesulfonamide [Compound 15] | 79% |
| O=S(=O)(NCc1ccnc2ccccc12)c1cccc(Cc2ccccc2)c1 [Compound 64] | 70% |
| N#Cc1ccc(Oc2ccc(S(=O)(=O)NCc3ccnc4ccccc34)cc2)cc1 [Compound 9] | 72% |
| O=S(=O)(NCc1ccnc2ccccc12)c1ccc(CCc2ccccc2)cc1 [Compound 38] | 75% |
| O=S(=O)(NCc1ccnc2ccccc12)c1ccc(Nc2ccccc2)cc1 [Compound 70] | 89% |
| N#Cc1cccc(Oc2ccc(S(=O)(=O)NCc3ccnc4ccccc34)cc2)c1 [Compound 23] | 54% |
| O=S(=O)(NCc1ccnc2ccccc12)c1ccc(Cc2ccc(F)cc2F)cc1 [Compound 60] | 76% |
| N#Cc1cc(Br)ccc1Oc1ccc(S(=O)(=O)NCc2ccnc3ccccc23)cc1 [Compound 31] | 66% |
| COc1ccccc1C(=O)Nc1ccc(S(=O)(=O)NCc2ccnc3ccccc23)cc1 [Compound 69] | 90% |
| O=S(=O)(NCc1ccnc2ccccc12)c1ccc(COc2ccc(Cl)cc2)cc1 [Compound 34] | 71% |
| O=S(=O)(NCc1ccnc2ccccc12)c1ccc(C(F)c2ccccc2)cc1 (racemic) [Compound 76] | 87% |
| O=C(Nc1ccc(S(=O)(=O)NCc2ccnc3ccccc23)cc1)c1ccccc1 [Compound 53] | 61% |
| COC(=O)c1ccc(Oc2ccc(S(=O)(=O)NCc3ccnc4ccccc34)cc2)c(Cl)c1 [Compound 27] | 78% |
| O=S(=O)(NCc1ccnc2ccccc12)c1ccc(OCc2ccc(Cl)cc2Cl)cc1 [Compound 7] | 61% |
| O=S(=O)(NCc1ccnc2ccccc12)c1ccc(C#Cc2ccccc2)s1 [Compound 74] | 60% |
| O=S(=O)(NCc1ccnc2ccccc12)c1ccc(Cc2ccccc2F)cc1 [Compound 91] | 93% |
| O=S(=O)(NCc1ccnc2ccccc12)c1ccc(Cc2ccccc2)s1 [Compound 80] | 80% |
| O=C(Nc1ccc(S(=O)(=O)NCc2ccnc3ccccc23)cc1)c1ccccc1Cl [Compound 56] | 78% |
| CNC(=O)c1ccc(Oc2ccc(S(=O)(=O)NCc3ccnc4ccccc34)cc2)cc1 [Compound 51] | 74% |
| O=S(=O)(NCc1ccnc2ccccc12)c1ccc(C#Cc2ccccc2)cc1 [Compound 28] | 62% |
| O=S(=O)(NCc1ccnc2ccccc12)c1cccc(Cc2ccc(F)cc2)c1 [Compound 92] | 73% |
| O=S(=O)(NCc1ccnc2ccccc12)c1ccc(Cc2ccccc2)cc1 [Compound 5, 4-(phenylmethyl)-N-(4-quinolinylmethyl)benzenesulfonamide] | 69% |
